Experimental data published in patent publication US20030170218A1, “Fungicide and method for producing the same” (Biobank Co., Ltd., priority 2002, published 2003).

Assays:
[1] = tested on: Trichophyton mentagrophytes; test: Agar dilution method, colony growth on sample plate; format: cell-based; settings: T. mentagrophytes, 28° C., 12 days; for Diameter of the colony: 2 mL sample + 18 mL Sabourand agar medium, 5 mm colony disk; for Antifungal activity: 100-[(x-5)/(y-5)x100] vs standard plate, 2 mL sample + 18 mL medium
Trichophyton rubrum = test: as above; format: cell-based; settings: T. rubrum, 28° C., 12 days; for Diameter of the colony: 2 mL sample + 18 mL Sabourand agar medium, 5 mm colony disk; for Antifungal activity: 100-[(x-5)/(y-5)x100] vs standard plate, 2 mL sample + 18 mL medium
pH measurement = format: physicochemical; settings: sample plate: 2 mL sample + 18 mL Sabourand agar medium
Fusarium oxysporum = test: Agar dilution method on potato dextrose agar; format: cell-based; settings: 2 mL sample + 18 mL potato dextrose agar
Rosellinia necatrix = test: Agar dilution method on potato dextrose agar; format: cell-based; settings: 2 mL sample + 18 mL potato dextrose agar
Helicobasidium mompa = test: Agar dilution method on potato dextrose agar; format: cell-based; settings: 2 mL sample + 18 mL potato dextrose agar
Pythium graminicola = test: Agar dilution method on potato dextrose agar; format: cell-based; settings: 2 mL sample + 18 mL potato dextrose agar
[2] = tested on: enterohemorrhagic E. coli O-157; settings: Japanese Patent Laid-Open No. 300284/2000; cited from earlier work

PH of the Medium (pH measurement)	SMILES	Diameter of the colony [1]	Antifungal activity [1]	Diameter of the colony (Trichophyton rubrum)	Antifungal activity (Trichophyton rubrum)	also measured
	O=C([O-])c1ccccc1C(=O)O.[K+] [Comp. Ex. 2, potassium hydrogen phthalate]	51.1 ± 2.4 mm	6%	21.0 ± 1.5 mm	58%	
	O=C(O)CC(O)(CC(=O)O)C(=O)O [Comp. Ex. 3, citric acid]	14.8 ± 0.7 mm	80%	26.5 ± 1.5 mm	44%	
4.30	O=C(O)C(=O)O [Comp. Ex. 5, oxalic acid]	17.6 ± 0.1 mm	74%	36.5 ± 1.1 mm	18%	
2.91	O=C(O)CC(=O)O [Comp. Ex. 6, malonic acid]	5.5 ± 0.0 mm	99%	5.5 ± 0.0 mm	99%	
3.46	CC(O)C(=O)O (stereo not shown) [Comp. Ex. 7, lactic acid]	17.7 ± 1.4 mm	74%	18.0 ± 5.0 mm	66%	
	O=C([O-])c1ccccc1C(=O)O.[K+] [Comparative Example 12, potassium hydrogen phthalate]					Diameter of the colony (Fusarium oxysporum; […]): 54.1 ± 4.1 mm; Antifungal activity (Fusarium oxysporum; vs standard plate): 5%; Diameter of the colony (Rosellinia necatrix; […]): 70.3 ± 0.0 mm; Antifungal activity (Rosellinia necatrix; vs standard plate): 5%; Diameter of the colony (Helicobasidium mompa; […]): 8.1 ± 0.7 mm; Antifungal activity (Helicobasidium mompa; vs standard plate): 95%; Diameter of the colony (Pythium graminicola; […]): 13.1 ± 0.6 mm; Antifungal activity (Pythium graminicola; vs standard plate): 88%
	O=C(O)C(O)Cc1ccccc1 (stereo not shown) [phenyllactic acid]					antibacterial activity [2]: strong antibacterial activity

SMILES	PH of the Medium (pH measurement)	Diameter of the colony [1]	Antifungal activity [1]	Diameter of the colony (Trichophyton rubrum)	Antifungal activity (Trichophyton rubrum)	also measured
CC(=O)O [Comp. Ex. 8, acetic acid]	4.12	5.7 ± 0.3 mm	99%	5.4 ± 0.3 mm	99%	
